Test results as given in PMC8648852, “Pyrazoline derivatives as promising novel antischistosomal agents” (Scientific Reports, 2021).

Legend:
[1] = Cytotoxicity assay (MTT), SH-SY5Y cells; type: cell-based, human; details: human, SH-SY5Y cells (human neuroblastoma); SH-SY5Y cells, 72 h, MTT
Protocol: (§1) The selectivity index (SI) of a compound is a widely accepted parameter used to express a drug’s in vitro efficacy. Therefore, the cytotoxic effect of these six pyrazolines (16, 18, 19, 21, 22 and 23) was evaluated using a monkey cell line (Vero) and a human cell line (SH-SY5Y). Cells were incubated with each compound at a range of concentrations for determination of cytotoxic concentrations 50% (CC50). […] With the EC50 data collected for schistosomes as well as the CC50 for animal and human cells, the selectivity indices (SI) were determined for each of the pyrazolines tested (Table 1). […] A SI value ≥ 10 is in accordance with the criteria defined by the WHO for antiparasitic hits, leads, and drug candidates. […] Comparatively, the SI values achieved with pyrazolines exceeded those obtained for other relevant heterocyclic compounds with antischistosomal properties[21],[22]. Although the SI values recorded for pyrazolines were more than 10 times below those for the reference drug praziquantel, a SI value ≥ 10 fulfills and exceeds the criteria established by the WHO for potential compounds as anthelmintic agents. The cytotoxicity of compounds was tested against Vero cells (African green monkey kidney cells obtained from the American Type Culture Collection, ATCC; Manassas, VA, USA) and SH-SY5Y cells (human neuroblastoma obtained from Banco de Células do Rio de Janeiro, BCRJ, RJ, Brazil). Cells was cultured in DMEM medium supplemented with 10% fetal calf serum, penicillin (100 U/mL) and streptomycin (100 µg/mL) and 2 mM of L-glutamine at 37 °C and in a 5% CO2 humidified incubator (Panasonic). The DMEM contained 1 or 4 mg/mL glucose for Vero and SH-SY5Y cells, respectively. Cytotoxicity assay was performed as previously described[25],[26]. Briefly, cells were seeded in 96-well plates (Corning) in DMEM medium and incubated with twofold serial drug starting at 200 μM following a 24 h adhesion period at 37 °C in 5% CO2. After 72 h, MTT was added and incubation was continued for another 3 h. The plate was then read using spectrophotometer (Epoch Microplate Spectrophotometer, BioTek Instruments, Winooski, VT, USA) at 595 nm. The assay was conducted in duplicate and repeated three times. Values were expressed as percentage of the control and 50% cytotoxic concentration (CC50) values were calculated. The selectivity indices (SI) of tested compounds were calculated by dividing CC50 values obtained on mammalian cells with EC50 values determined on S. mansoni.

[2] = system: SH-SY5Y cells; experiment: Cytotoxicity assay (MTT), SH-SY5Y cells; type: cell-based, human; details: CC50 (SH-SY5Y) divided by EC50 (S. mansoni)
Protocol: as §1

[3] = system: paired adult schistosomes (S. mansoni); experiment: Egg production (fecundity) of paired adult schistosomes in vitro; type: cell-based, Schistosoma mansoni; details: sublethal concentrations (6.25 μM for 16, 12.5 μM for 19 and 23), compared to control
Protocol: Based on antischistosomal properties of pyrazolines 16, 18, 19, 21, 22 and 23, the ability of these six compounds to affect fecundity (egg production) was subsequently measured. […] To further investigate this effect on schistosome fecundity, parasites were tested using sublethal concentrations (3.5 μM for compound 22, 6.25 μM for compound 16, and 12.5 μM for compounds 18, 19, 21, and 23).
(§2) Adult schistosomes (BH strain) were isolated from infected mice and cultured in RPMI medium + 10% fetal calf serum and 100 U/mL penicillin and 100 μg/mL streptomycin in a 24-well culture plate (Corning, New York, NY, USA) containing one pair of parasites per well at 37 °C and 5% CO2 (Panasonic Healthcare, Sakata, Oizumi-machi, Japan)[38],[39]. For antischistosomal assay, compounds were dissolved in DMSO (final concentration of 0.5% v/v). Each drug concentration was tested at least in triplicate, and the experiments were repeated three times. The initial concentration of the pyrazolines and praziquantel was 50 μM and 3 μM, respectively, which was serially diluted in medium with twofold dilutions to give six concentrations[40],[41]. The negative control worms were assayed in RPMI 1640 medium and RPMI 1640 with 0.5% DMSO. Parasites were monitored daily at 24, 48 and 72 h under a stereomicroscope (Leica Microsystems EZ4E, Wetzlar, Germany) and an inverted microscope (BEL Engineering INV 100, Monza, MB, Italy). Egg production was evaluated daily as previously described. Parasite viability was averaged and 50% effective concentrations (EC50) were calculated using GraphPad Prism software[24],[43].

[4] = system: S. mansoni adult worm; experiment: In vitro antischistosomal assay (viability of ex vivo adult worms); type: cell-based, Schistosoma mansoni
Protocol: For biological screening, S. mansoni adult parasites were isolated from the mouse infection model (parasite ex vivo) and all compounds were initially screened at 50 µM. The gold-standard antiparasitic compound praziquantel was used as a positive control and DMSO at 0.5% v/v (representing the highest concentration of solvent) served as a negative control. […] For the remaining compounds tested, no EC50 values could be calculated due to lack of activity at 50 μM. […] In tandem, our findings confirm that pyrazolines have a potent antiparasitic activity. Indeed, few compounds in the literature are active at low concentrations for review see[11],[19]. According to criteria established by the World Health Organization (WHO) for antiparasitic hits, leads, and drug candidates, at the start of a screening campaign a compound should inhibit mobility of helminths in vitro at 10 μg/mL[20], commonly ranging from 30 to 40 μM. Thus, the anthelminthic activity of pyrazolines surpasses criteria established by the WHO.
as §2

[5] = system: Vero cells; experiment: Cytotoxicity assay (MTT), Vero cells; type: cell-based, African green monkey; details: CC50 (Vero) divided by EC50 (S. mansoni)
Protocol: as §1

[6] = Cytotoxicity assay (MTT), Vero cells; type: cell-based, African green monkey; details: African green monkey, Vero cells (African green monkey kidney cells); Vero cells, 72 h, MTT; brackets = 95% confidence interval
Protocol: as §1

- EC50 ([4]; Schistosoma mansoni, 72 h, ex vivo adult schistosomes, brackets = 95% confidence interval): 28.2 µM
Compound: CCCCCCOc1ccc(C2CC(c3ccccc3)=NN2C(N)=S)cc1 (centres unmarked) [Compound 23, 4,5-dihydro-5-(4-(hexyloxy)phenyl)-3-phenylpyrazole-1-carbothioamide]
- CC50 at 72 h [1]: > 200 µM
- Human cells SI (selectivity index) [2]: > 7.1
- Reduction in the number of eggs [3]: 30–70%
- Time until all parasites were dead ([4]; 50 μM): 72 h
- Antiparasitic activity in initial screen ([4]; 50 µM, after 72 h, adult worms): showed antiparasitic activity
- Monkey cells SI (selectivity index) [5]: > 7.1
- CC50 at 72 h [6]: > 200 µM
